# Assay results taken from US20090304632A1, “HETEROCYCLIC NF-kB INHIBITORS” (priority 2007, published 2009).
# Where two headings read alike, the source gives them in different places.
# Key:
# NF-κB = NF-κB inflammation assay (PRINCESS NINA Instant Assay, A549-NF-κB-SEAP reporter cells); type: cell-based; settings: for EC50: A549-NF-κB-SEAP reporter cells stimulated with 2 ng/ml TNF-α, read-out: Biological activity (EC50, NF-κB inflammation assay)
# influenza strain H7N7 = type: in vivo, mouse
# influenza virus = experiment: Antiviral combination with interferon-α
# mouse T-cell = experiment: Mouse T-cell proliferation; type: cell-based
# influenza strain H5N1 = type: in vivo, mouse
# [1] = test system: Influenza A virus H5N1-strain; type: cell-based; settings: 5 μM, infected A549 cells
# human PBMCs = experiment: Cytokine production of human PBMCs; type: cell-based; settings: for EC50: Homo sapiens, PBMC, 48 h, 48 hours
# hematological cell lines = experiment: In-vitro antitumor activity in human tumor cell lines (monolayer assay, propidium iodide); type: cell-based
# human lymphocyte = experiment: T-lymphocyte proliferation assay (stimulated PBMC, BrdU); type: cell-based
# [2] = test system: bird flu virus H5N1 (strain MB1); type: in vivo, mouse; settings: H5N1 infected mice, daily 15 mg/kg i.p. for two days
# A549 cells = experiment: Determination of cell viability (MTT staining); type: cell-based
# Procedure: Cell lines (e.g. A549) incubated with compounds of the invention were assessed on cell viability by means of MTT staining.
# [3] = test system: Fowl Plaque Virus, H7N7-strain; type: cell-based, Influenza A virus; settings: 5 μM, infected A549 cells
# mouse splenocytes = experiment: Cytokine production of mouse splenocytes stimulated with CD3/CD28; type: cell-based; settings: 10 μM
smiles,measurement,setting,value
"COc1cc(N2CCC(c3nc(C(=O)Nc4nc5ccc(C(=O)c6ccccc6)cc5[nH]4)cs3)CC2)nc(OC)n1 [Compound 1, N-(6-benzoyl-1H-benzo[d]imidazol-2-yl)-2-(1-(2,6-dimethoxypyrimidin-4-yl)piperidin-4-yl)thiazole-4-carboxamide]",EC50,NF-κB,< 10 µM
"O=C(c1ccccc1)c1ccc2nc(NC(=O)c3csc(C4CCN(c5ncnc6nc[nH]c56)CC4)n3)[nH]c2c1 [Compound 2, 2-(1-(7H-purin-6-yl)piperidin-4-yl)-N-(6-benzoyl-1H-benzo[d]imidazol-2-yl)thiazole-4-carboxamide]",EC50,NF-κB,< 10 µM
"N#Cc1ccnc(N2CCC(c3nc(C(=O)Nc4nc5ccc(C(=O)c6ccccc6)cc5[nH]4)cs3)CC2)c1 [Compound 3, N-(6-benzoyl-1H-benzo[d]imidazol-2-yl)-2-(1-(4-cyanopyridin-2-yl)piperidin-4-yl)thiazole-4-carboxamide]",EC50,NF-κB,30 to 100 µM
"O=C(c1ccccc1)c1ccc2nc(NC(=O)c3csc(C4CCN(c5ncnc6ccsc56)CC4)n3)[nH]c2c1 [Compound 4, N-(6-benzoyl-1H-benzo[d]imidazol-2-yl)-2-(1-(thieno[3,2-d]pyrimidin-4-yl)piperidin-4-yl)thiazole-4-carboxamide]",protection of infected mice (survival),"influenza strain H7N7; LD50 H7N7, 15 mg/kg daily i.p. day 0 to day 8, end day 14, p<0.05",complete protection
same,protection of infected mice (survival),"influenza strain H7N7; LD50 H7N7, daily i.v. day 0 to day 4, doses equal or higher 5 mg/kg, end day 14, p<0.05",significant protection
same,synergism in anti-viral efficacy and toxicity antagonism of combination with INFα versus IFNα combination with ribavirin,influenza virus; combination with INFα,stronger synergism
same,antiviral effects in combination with INF-α,influenza virus; combination with interferon-α,synergistic antiviral effects
same,mouse T-cell proliferation,mouse T-cell,inhibits
same,protection of infected mice (survival),"influenza strain H5N1; LD50 H5N1, treatment from day 4 to day 10, 7.5 mg/kg b.id. and 15 mg/kg daily i.p., end day 14, p=0.05",significant protection
same,protection of infected mice (survival),"influenza strain H5N1; LD50 H5N1, two times 7.5 mg/kg daily i.p. day 0 to day 10, end day 14, p<0.05",significant protection
same,reduction of virus titer,[1],4 log units
same,EC50,"human PBMCs; LPS stimulation, read-out: IL-6 secretion EC50",0.6 µM
same,EC50,"human PBMCs; LPS stimulation, read-out: TNF-alpha secretion EC50",12.6 µM
same,EC50,"human PBMCs; PHA stimulation, read-out: IL-6 secretion EC50",0.2 µM
same,EC50,"human PBMCs; PHA stimulation, read-out: INF-gamma secretion EC50",9 µM
same,EC50,"human PBMCs; PHA stimulation, read-out: TNF-alpha secretion EC50",7.9 µM
same,"secretion of cytokines like IL-1beta, IL-6, IL-8, IFN-gamma, and TNF-alpha",human PBMCs; stimulated with CL075,blocked
same,secretion of cytokines like IL-6 and IL-8,human PBMCs; stimulated with IL-1beta,blocked
same,"secretion of cytokines like IL-8, IL-1beta, INF-gamma, TNF-alpha, IL-10, and IL-6",human PBMCs; stimulated with LPS,blocked
same,secretion of cytokines like IL-6 and IL-8,human PBMCs; stimulated with ODN1668,blocked
same,secretion of cytokines like IL-8 and IFN-gamma,human PBMCs; stimulated with ODN2216,blocked
same,"secretion of cytokines like IL-1beta, IL-6, IL-2, IL-8, IL-10, IL-12p70, INF-gamma, and TNF-alpha",human PBMCs; stimulated with PHA,blocked
same,"secretion of cytokines like IL-1beta, IL-6, and IL-8",human PBMCs; stimulated with TNF-alpha,blocked
same,EC50,NF-κB,< 10 µM
same,IC50,NF-κB; read-out: NF-κB reporter gene assay IC50,~0.1 µM
same,multiple myeloma derived cell lines above average sensitive,hematological cell lines; cell lines derived from multiple myelomas,4 out of 5
same,score of tumor sensitivity,hematological cell lines; panel of hematological cell lines,excellent score of tumor sensitivity
same,human lymphocyte proliferation,human lymphocyte,inhibits
same,expression of H5N1 specific mRNA in the lung,[2],reduced expression
same,transcription of IL-6 and IP-10 genes in the lung,[2],reduced transcription
same,cytotoxicity,A549 cells,not cytotoxic
same,cell viability versus DMSO treated and untreated cells,"A549 cells; 5 μM, absence of virus, MTT staining, 96 hours",the same
same,reduction of virus titer,[3],5 log units
same,"cytokine production, all measured cytokines",mouse splenocytes; after 24 hours,completely inhibited
same,reduction of secretion of most cytokines,mouse splenocytes; after 48 hours,more than 90 % of the DMSO control
"O=C(c1ccccc1)c1ccc2nc(NC(=O)c3csc(C4CCN(c5cc(C(F)(F)F)ncn5)CC4)n3)[nH]c2c1 [Compound 5, N-(6-benzoyl-1H-benzo[d]imidazol-2-yl)-2-(1-(6-(trifluoromethyl)pyrimidin-4-yl)piperidin-4-yl)thiazole-4-carboxamide]",EC50,NF-κB,10 to 30 µM
"COc1cc2c(N3CCC(c4nc(C(=O)Nc5nc6cc(C(=O)c7ccccc7)ccc6[nH]5)cs4)CC3)ncnc2cc1OCCCN1CCN(C)CC1 [Compound 6, N-(5-benzoyl-1H-benzo[d]imidazol-2-yl)-2-(1-(6-methoxy-7-(3-(4-methylpiperazin-1-yl)propoxy)quinazolin-4-yl)piperidin-4-yl)thiazole-4-carboxamide]",EC50,NF-κB,< 10 µM
"O=CN1CCC(c2nc(C(=O)Nc3nc4cc(C(=O)c5ccccc5)ccc4[nH]3)cs2)CC1 [Compound 7, N-(5-benzoyl-1H-benzo[d]imidazol-2-yl)-2-(1-formylpiperidin-4-yl)thiazole-4-carboxamide]",EC50,NF-κB,< 10 µM
"COC(=O)c1cn2ncnc(N3CCC(c4nc(C(=O)Nc5nc6cc(C(=O)c7ccccc7)ccc6[nH]5)cs4)CC3)c2c1C [Compound 8, Methyl 4-(4-(4-(5-benzoyl-1H-benzo[d]imidazol-2-ylcarbamoyl)thiazol-2-yl)piperidin-1-yl)-5-methylpyrrolo[1,2-f][1,2,4]triazine-6-carboxylate]",EC50,NF-κB,30 to 100 µM
"Cc1cc2nccc(N3CCC(c4nc(C(=O)Nc5nc6cc(C(=O)c7ccccc7)ccc6[nH]5)cs4)CC3)n2n1 [Compound 9, N-(5-benzoyl-1H-benzo[d]imidazol-2-yl)-2-(1-(2-methylpyrazolo[1,5-a]pyrimidin-7-yl)piperidin-4-yl)thiazole-4-carboxamide]",EC50,NF-κB,< 10 µM
"O=C(c1ccccc1)c1ccc2[nH]c(NC(=O)c3csc(C4CCN(c5ccnc6ncnn56)CC4)n3)nc2c1 [Compound 10, 2-(1-([1,2,4]triazolo[1,5-a]pyrimidin-7-yl)piperidin-4-yl)-N-(5-benzoyl-1H-benzo[d]imidazol-2-yl)thiazole-4-carboxamide]",EC50,NF-κB,< 10 µM
"COC(=O)c1nc2nccc(N3CCC(c4nc(C(=O)Nc5nc6cc(C(=O)c7ccccc7)ccc6[nH]5)cs4)CC3)n2n1 [Compound 11, Methyl 7-(4-(4-(5-benzoyl-1H-benzo[d]imidazol-2-ylcarbamoyl)thiazol-2-yl)piperidin-1-yl)-[1,2,4]triazolo[1,5-a]pyrimidine-2-carboxylate]",EC50,NF-κB,< 10 µM
"O=C(c1ccccc1)c1ccc2nc(NC(=O)c3csc(C4CCN(C(=O)Nc5cc(Cl)nc(Cl)c5)CC4)n3)[nH]c2c1 [Compound 12, N-(6-benzoyl-1H-benzo[d]imidazol-2-yl)-2-(1-(2,6-dichloropyridin-4-ylcarbamoyl)piperidin-4-yl)thiazole-4-carboxamide]",EC50,NF-κB,< 10 µM
"COc1nc(OC)nc(N2CCC(c3nc(C(=O)Nc4nc5cc(C(=O)c6ccccc6)ccc5[nH]4)cs3)CC2)n1 [Compound 13, N-(5-benzoyl-1H-benzo[d]imidazol-2-yl)-2-(1-(4,6-dimethoxy-1,3,5-triazin-2-yl)piperidin-4-yl)thiazole-4-carboxamide]",EC50,NF-κB,< 10 µM
"COc1cc2ncnc(N3CCC(c4nc(C(=O)Nc5nc6cc(C(=O)c7ccccc7)ccc6[nH]5)cs4)CC3)c2cc1OC [Compound 14, N-(5-benzoyl-1H-benzo[d]imidazol-2-yl)-2-(1-(6,7-dimethoxyquinazolin-4-yl)piperidin-4-yl)thiazole-4-carboxamide]",EC50,NF-κB,< 10 µM
"O=C(c1ccccc1)c1ccc2[nH]c(NC(=O)c3csc(C4CCN(c5ccncc5[N+](=O)[O-])CC4)n3)nc2c1 [Compound 15, N-(5-benzoyl-1H-benzo[d]imidazol-2-yl)-2-(1-(3-nitropyridin-4-yl)piperidin-4-yl)thiazole-4-carboxamide]",EC50,NF-κB,< 10 µM
"O=C(c1ccccc1)c1ccc2[nH]c(NC(=O)c3csc(C4CCN(C(=O)c5ccccc5OC(F)(F)F)CC4)n3)nc2c1 [Compound 16, N-(5-benzoyl-1H-benzo[d]imidazol-2-yl)-2-(1-(2-(trifluoromethoxy)benzoyl)piperidin-4-yl)thiazole-4-carboxamide]",EC50,NF-κB,< 10 µM
"Cc1cc2nnc(C(=O)N3CCC(c4nc(C(=O)Nc5nc6cc(C(=O)c7ccccc7)ccc6[nH]5)cs4)CC3)c(C)n2n1 [Compound 17, N-(5-benzoyl-1H-benzo[d]imidazol-2-yl)-2-(1-(4,7-dimethylpyrazolo[5,1-c][1,2,4]triazine-3-carbonyl)piperidin-4-yl)thiazole-4-carboxamide]",EC50,NF-κB,< 10 µM
